Literature values as cited in Sander's compilation of Henry's law constants (doi:10.2175/wer.65.7.2).

assay: Henry solubility constant Hcp at 293 K (mol/(m3 Pa)); conditions: reference: Smith et al. (1993); cited value

Structure (SMILES) | Henry solubility constant Hcp at 293 K
c1ccccc1 [benzene] | 0.0018
Cc1ccccc1 [methylbenzene] | 0.0017

assay: Henry solubility constant Hcp at 294 K (mol/(m3 Pa)); conditions: reference: Smith et al. (1993); cited value

Henry solubility constant Hcp at 294 K | Structure (SMILES)
0.25 | c1ccc2c(c1)ccc1ccccc12 [phenanthrene]

assay: Henry solubility constant Hcp at 298.15 K (mol/(m3 Pa)); conditions: reference: Smith et al. (1993); cited value

Henry solubility constant Hcp | Structure (SMILES)
0.084 | c1ccc2c(c1)Cc1ccccc1-2 [2,3-benzindene]
9.4 | c1ccc2c(c1)ccc1c3ccccc3ccc21 [chrysene]
180 | c1cc2ccc3ccc4ccc5cccc6c(c1)c2c3c4c56 [benzo[ghi]perylene]
0.83 | c1ccc2c(c1)-c1cccc3c1c-2cc1ccccc13 [benzo[b]fluoranthene]
0.02 | c1ccc2ccccc2c1 [naphthalene]
0.11 | c1ccc2cc3ccccc3cc2c1 [anthracene]
140 | c1ccc2c(c1)-c1ccc3ccc4cccc5cc-2c1c3c45 [indeno[1,2,3-cd]pyrene]
140 | c1ccc2c(c1)ccc1cc3c(ccc4ccccc43)cc12 [dibenz[a,h]anthracene]

The remaining lines, values behind:

Structure (SMILES) | Henry solubility constant Hcp
c1cc2c3c(cccc3c1)CC2 [acenaphthene] | 0.041
Cc1ccc(O)c(C)c1 [1-hydroxy-2,4-dimethylbenzene] | 0.58
C1=Cc2cccc3cccc1c23 [acenaphthylene] | 0.087
c1ccc2cc3c(cc2c1)-c1cccc2cccc-3c12 [benzo[k]fluoranthene] | 0.25
c1ccc2c(c1)cc1ccc3cccc4ccc2c1c34 [benzo[a]pyrene] | 20
c1ccc2c(c1)-c1cccc3cccc-2c13 [benzo[jk]fluorene] | 1.5
